According to patent publication US12275734B1, “Pleuromutilin onium salt derivative containing a 3H-imidazo[4,5-c]pyridine side chain, and a preparation method and application thereof” (SHAANXI UNIVERSITY OF SCIENCE AND TECHNOLOGY, priority 2024, dated 2025):

Columns and labels:
E. coli (ATCC 25922) [1] = assay: Bacterial intracellular pH (cFDA-SE); type: cell-based; conditions: control 6.16±0.10
Experimental: The definition of pHin is based on the ratio of the pH-sensitive wavelength (490 nm) to the pH-insensitive wavelength (440 nm).
First, prepare fluorescently labeled bacterial cells. MRSA and E. coli bacteria were removed from the culture in the logarithmic growth phase, and after high-speed centrifugation and washing with HEPES buffer, the bacteria were labeled with carboxyfluorescein succinimidyl ester (cFDA-SE), and the fluorescent dye was bound to the cells by incubation.
Next, PBS buffer was used to wash and remove the unbound fluorescent dye, and then the cells were suspended in the buffer and stored in a low-temperature environment. The second step was to determine the intracellular pH. The fluorescently labeled cell suspension was added to a test tube containing different concentrations of compound i and transferred to a black opaque 96-well plate for incubation. The fluorescence value was measured at specific excitation and emission wavelengths using a full-wavelength scanning multifunctional reader to calculate the intracellular pH. The last step is the calibration of the intracellular pH. The standard curve was determined using buffer solutions with different pH values to ensure accurate determination of the pH value inside the bacterial cells. […]

E. coli (ATCC 25922) [2] = assay: Cell membrane potential, DiBAC4 (3) probe; conditions: 1×MIC to 8×MIC, vs blank control
E. coli (ATCC 25922) [3] = assay: Bacterial extracellular conductivity; type: cell-based; conditions: 1×MIC and 2×MIC, vs blank control
Excerpt: Changes in conductivity can reflect the permeability and integrity of the cell membrane. When the cell membrane is damaged or the permeability increases, the flow of ions inside and outside the cell will increase, resulting in an increase in conductivity. In the fields of biology and cell biology, conductivity measurements are often used to assess changes in cell membrane integrity.
MRSA and E. coli cells in the logarithmic growth phase were first resuspended after high-speed centrifugation and repeated PBS buffer washing and adjusted to the appropriate optical density. Next, different concentrations of compound i (1×MIC and 2×MIC) were added to the cell suspension, and a blank control group was set. All samples were incubated at 37° C. and sampled at set time points (0, 1, 2, 4, 6, and 8 hours). […] This series of operations helps to reveal the specific mechanism of action of compound i on bacterial growth and cell structure.

C=C[C@]1(C)C[C@@H](OC(=O)CSc2nc3cc[n+](Cc4ccc(C)cc4)cc3[nH]2)[C@]2(C)[C@H](C)CC[C@]3(CCC(=O)[C@H]32)[C@@H](C)[C@@H]1O [Compound i, 5-(4-methylbenzyl)-2-((2-(((3aR,4R,5R,7S,8S,9R,9aS,12R)-8-hydroxy-4,7,9,12-tetramethyl-3-oxo-7-vinyldecahydro-4,9a-propancyclopenta[8]cyclo-5-yl)oxy)-2-oxoethyl)thio)-3H-imidazo[4,5-C]pyridine-5-ium]
intracellular pH after treatment (E. coli (ATCC 25922) [1]; 1×MIC): 4.79±0.10 | intracellular pH after treatment (E. coli (ATCC 25922) [1]; 2×MIC): 3.58±0.10 | membrane potential, DiBAC4 (3) fluorescence intensity (E. coli (ATCC 25922) [2]): dose-dependent increase in fluorescence intensity | extracellular conductivity (E. coli (ATCC 25922) [3]): increased
